Measured values taken from patent publication US20260226034A1 (The Rockefeller University, priority 2023, published 2026).
pIC50: −log10 of the molar value.

target: NSP14 (Severe acute respiratory syndrome coronavirus 2, UniProt P0DTD1); test: NSP14 MTase inhibition assay at 37° C. (MTase-Glo SAH detection); format: biochemical, SARS-CoV-2; details: 37° C., 0.3 nM NSP14, 2.5 μM SAM, 2.5 μM GpppA RNA; read-out: Nsp14 Mtase Inh. IC50

SMILES | pIC50
Cc1c(S(=O)(=O)c2ccc3[nH]ncc3c2)cc(C(=O)NCc2cc(F)cc3cnn(C)c23)n1C [B.96] | 9.00
Cc1c(S(=O)(=O)c2ccc3[nH]ncc3c2)cc(C(=O)NCc2cc(F)cc3cn(C)nc23)n1C [B.97] | 7.96
Cc1c(S(=O)(=O)c2cc(C#N)c3[nH]ncc3c2)cc(C(=O)NCc2c(F)ccc3cnn(C4CC4)c23)n1C [B.98] | 9.30
Cc1c(S(=O)(=O)c2cc(F)c3[nH]nc(F)c3c2)cc(C(=O)NCc2c(F)ccc3cnn(C4CC4)c23)n1C [B.99] | 9.82
Cc1c(S(=O)(=O)c2ccc3[nH]ncc3c2)cc(C(=O)NCc2ccnn2C)n1C [B.100] | 7.92
Cc1c(S(=O)(=O)c2ccc3[nH]ncc3c2)cc(C(=O)NCc2ccccc2C#N)n1C [B.101] | 6.72
Cc1c(S(=O)(=O)c2cc(F)c3[nH]ncc3c2)cc(C(=O)NCc2c(F)ccc3ncn(C4CC4)c23)n1C [B.102] | > 9.82
Cc1c(S(=O)(=O)c2ccc3[nH]nc(F)c3c2)cc(C(=O)NCc2c(F)ccc3ncn(C4CC4)c23)n1C [B.103] | > 9.82
Cc1c(S(=O)(=O)c2ccc3[nH]ncc3c2)cc(C(=O)NCc2ccc(=O)[nH]c2)n1C [B.104] | 7.57
Cc1c(S(=O)(=O)c2ccc3[nH]nc(F)c3c2)cc(C(=O)NCc2c(F)ccc3c2N(C)C(=O)C3(F)F)n1C [B.105] | 9.82
Cc1c(S(=O)(=O)c2cc(C#N)c3[nH]ncc3c2)cc(C(=O)NCc2cccc3cnn(C4CC4)c23)n1C [B.106] | 9.49
Cc1c(S(=O)(=O)c2ccc3[nH]ncc3c2)cc(C(=O)NCc2c(F)cncc2F)n1C [B.107] | 9.92
Cc1c(S(=O)(=O)c2ccc3[nH]ncc3c2)cc(C(=O)NCc2c(F)cccc2OCCS(C)(=O)=O)n1C [B.108] | > 9.82
Cc1c(S(=O)(=O)c2cc(F)c3[nH]ncc3c2)cc(C(=O)NCc2c[nH]c(=O)c3ccccc23)n1C [B.109] | 9.62
Cc1c(S(=O)(=O)c2ccc3c(c2)c(O)nn3C)cc(C(=O)NCc2c(F)ccc3cnn(C4CC4)c23)n1C [B.111] | 6.85
COc1nccc(F)c1CNC(=O)c1cc(S(=O)(=O)c2ccc3[nH]ncc3c2)c(C)n1C [B.112] | > 9.82
Cc1c(S(=O)(=O)c2ccc3[nH]ncc3c2)cc(C(=O)NCc2c(F)cc[nH]c2=O)n1C [B.113] | 9.47
Cc1c(S(=O)(=O)c2ccc3[nH]ncc3c2)cc(C(=O)NCc2c(F)cc(CCN(C)C)cc2F)n1C [B.114] | 6.74
Cc1c(S(=O)(=O)c2ccc3[nH]ncc3c2)cc(C(=O)NCc2c[nH]c(=O)c3cnn(C)c23)n1C [B.115] | 9.77
Cc1cc[nH]c(=O)c1CNC(=O)c1cc(S(=O)(=O)c2ccc3[nH]ncc3c2)c(C)n1C [B.116] | 8.34
Cc1c(S(=O)(=O)c2ccc3[nH]ncc3c2)cc(C(=O)NCc2nccc3ncn(C4CC4)c23)n1C [B.117] | 9.74
Cc1c(S(=O)(=O)c2ccc3[nH]ncc3c2)cc(C(=O)NCc2nccc3cnn(C4CC4)c23)n1C [B.118] | 9.32
Cc1c(S(=O)(=O)c2ccc3[nH]ncc3c2)cc(C(=O)NCc2c(F)ccc3c2N(C)C(=O)C3(C)C)n1C [B.119] | 9.68
Cc1c(S(=O)(=O)c2ccc3[nH]ncc3c2)cc(C(=O)NC2Cc3ccccc32)n1C (stereo not shown) [B.120] | 8.92
Cc1c(S(=O)(=O)c2ccc3[nH]ncc3c2)cc(C(=O)NCc2n[nH]c(=O)c3ccccc23)n1C [B.121] | > 9.82
Cc1c(S(=O)(=O)c2ccc3[nH]nc(F)c3c2)cc(C(=O)NC(c2ccccc2)C(F)(F)F)n1C (stereo not shown) [B.122] | 7.15

SMILES | pIC50
Cc1c(S(=O)(=O)c2ccc3[nH]ncc3c2)cc(C(=O)NCc2c(F)ccc(OCc3ccc(C(=O)O)cc3)c2F)n1C [B.123] | > 9.82
Cc1[nH]c(=O)c2ccccc2c1CNC(=O)c1cc(S(=O)(=O)c2ccc3[nH]nc(F)c3c2)c(C)n1C [B.124] | 9.44
Cc1c(S(=O)(=O)c2ccc3[nH]ncc3c2)cc(C(=O)NCc2c(F)ccc(OCCCCC(=O)O)c2F)n1C [B.125] | > 9.82
Cc1c(S(=O)(=O)c2ccc3[nH]nc(F)c3c2)cc(C(=O)NC(c2ccccc2)c2ccccc2)n1C [B.126] | 6.97
Cc1c(S(=O)(=O)c2ccc3ccc(C#N)cc3c2)cc(C(=O)NCc2c(F)ccc3cnn(C)c23)n1C [B.128] | 9.03
Cc1c(S(=O)(=O)c2ccc3[nH]ncc3c2)cc(C(=O)NCc2ncnc3ncn(C)c23)n1C [B.129] | > 9.82
Cc1c(S(=O)(=O)c2ccc3[nH]ncc3c2)cc(C(=O)NCc2c[nH]c(=O)c3cnccc23)n1C [B.130] | > 9.82
Cc1c(S(=O)(=O)c2ccc3[nH]ncc3c2)cc(C(=O)NCc2nccn2C)n1C [B.131] | 7.10
Cc1c(S(=O)(=O)c2ccc3[nH]ncc3c2)cc(C(=O)NCc2c[nH]c3ncccc23)n1C [B.132] | 9.22
Cc1c(S(=O)(=O)c2ccc3[nH]ncc3c2)cc(C(=O)NCc2ccc(=O)n(C)n2)n1C [B.133] | 8.12
Cc1c(S(=O)(=O)c2cc(Cl)c3[nH]ncc3c2)cc(C(=O)NCc2ccnn2C)n1C [B.134] | 9.74
Cc1c(S(=O)(=O)c2ccc3c(=O)[nH]ccc3c2)cc(C(=O)NCc2c(F)ccc3cnn(C4CC4)c23)n1C [B.136] | > 9.82
Cc1c(S(=O)(=O)c2cc(F)c3[nH]ncc3c2)cc(C(=O)NCc2ccnn2C)n1C [B.137] | 8.00
Cc1c(S(=O)(=O)c2ccc3[nH]ncc3c2)cc(C(=O)NCc2cnc3ccccn23)n1C [B.138] | 8.20
Cc1c(S(=O)(=O)c2ccc3[nH]ncc3c2)cc(C(=O)NCc2ccn3nccc3c2)n1C [B.141] | 7.80
Cc1c(S(=O)(=O)c2ccc3[nH]ncc3c2)cc(C(=O)NCc2c(Cl)cnn2C)n1C [B.142] | 8.85
Cc1c(S(=O)(=O)c2ccc3[nH]ncc3c2Cl)cc(C(=O)NCc2c(F)ccc3c2N(C)C(=O)C32CC2)n1C [B.143] | 9.40
Cc1c(S(=O)(=O)c2cc(C(F)(F)F)c3[nH]ncc3c2)cc(C(=O)NCc2c(F)ccc3nnn(C4CC4)c23)n1C [B.144] | 9.00
Cc1c(S(=O)(=O)c2ccc3[nH]ncc3c2)cc(C(=O)NCc2c(F)ccc3c2N(C)C(=O)C32CC2)n1C [B.145] | > 9.82
Cc1c(S(=O)(=O)c2ccc3[nH]ncc3c2)cc(C(=O)NCc2cncn2C)n1C [B.146] | 7.54
Cc1cc(CNC(=O)c2cc(S(=O)(=O)c3ccc4[nH]ncc4c3)c(C)n2C)n(C)n1 [B.147] | 6.84
Cc1c(S(=O)(=O)c2ccc3[nH]ncc3c2)cc(C(=O)NCc2cccn3ncnc23)n1C [B.148] | 8.13
Cc1c(S(=O)(=O)c2ccc3[nH]ncc3c2)cc(C(=O)NCc2ccc3ncnn3c2)n1C [B.149] | 7.74
Cc1ncoc1CNC(=O)c1cc(S(=O)(=O)c2ccc3[nH]ncc3c2)c(C)n1C [B.150] | 7.85
O=C(O)CCn1ncc2ccc(F)c(CNC(=O)c3cc(S(=O)(=O)c4cc(Cl)c5[nH]ncc5c4)c4n3CCC4)c21 [B.151] | > 9.82
Cc1nn(C)cc1CNC(=O)c1cc(S(=O)(=O)c2ccc3[nH]ncc3c2)c(C)n1C [B.152] | 7.70

SMILES | pIC50
Cc1c(S(=O)(=O)c2cc(Cl)c3[nH]ncc3c2)cc(C(=O)NCc2c(F)ccc3nnn(C4CC4)c23)n1C [B.153] | > 9.82
Cc1c(S(=O)(=O)c2ccc3[nH]ncc3c2)cc(C(=O)NCc2c(F)cnn2C)n1C [B.154] | 9.25
Cc1c(S(=O)(=O)c2ccc3[nH]ncc3c2)cc(C(=O)NCc2c[nH]c(=O)c3ncccc23)n1C [B.155] | 9.52
Cc1c(S(=O)(=O)c2ccc3[nH]ncc3c2)cc(C(=O)NCc2cn(C)c(=O)cn2)n1C [B.156] | 8.22
Cc1c(S(=O)(=O)c2ccc3[nH]ncc3c2)cc(C(=O)NCc2c[nH]c(=O)c3cccnc23)n1C [B.159] | 9.37
Cc1c(S(=O)(=O)c2ccc3[nH]ncc3c2)cc(C(=O)NCc2ccn(C(F)F)n2)n1C [B.160] | 6.83
Cc1cc(C)c(CNC(=O)c2cc(S(=O)(=O)c3ccc4[nH]ncc4c3)c(C)n2C)c(=O)[nH]1 [B.161] | 8.57
Cc1c(S(=O)(=O)c2ccc3[nH]ncc3c2)cc(C(=O)NCc2ccnn2CC(F)F)n1C [B.162] | 8.66
Cc1c(S(=O)(=O)c2ccc3[nH]ncc3c2)cc(C(=O)NCc2cnn3ccccc23)n1C [B.163] | 8.52
Cc1cc(C)n(C)c(=O)c1CNC(=O)c1cc(S(=O)(=O)c2ccc3[nH]ncc3c2)c(C)n1C [B.164] | 9.07
Cc1c(S(=O)(=O)c2ccc3[nH]ncc3c2)cc(C(=O)NCc2ccnn2C(F)F)n1C [B.165] | 7.85
CCn1nccc1CNC(=O)c1cc(S(=O)(=O)c2ccc3[nH]ncc3c2)c(C)n1C [B.166] | 9.02
Cc1c(S(=O)(=O)c2ccc3[nH]ncc3c2)cc(C(=O)NCc2ccnn2C2CC2)n1C [B.167] | 8.11
Cc1c(S(=O)(=O)c2ccc3[nH]ncc3c2)cc(C(=O)NCc2ccn(C3CC3)n2)n1C [B.168] | 6.76
Cc1c(S(=O)(=O)c2ccc3[nH]ncc3c2)cc(C(=O)NC(=O)c2ccccc2)n1C [B.169] | 8.49
Cc1c(S(=O)(=O)c2ccc3[nH]ncc3c2)cc(C(=O)NCc2c(Cl)ccc(=O)n2C)n1C [B.174] | 9.15
Cc1c(S(=O)(=O)c2ccc3[nH]nc(F)c3c2)cc(C(=O)NCc2c[nH]c(=O)c3cccnc23)n1C [B.175] | 8.48
COc1ccc(CNC(=O)c2cc(S(=O)(=O)c3ccc4[nH]nc(F)c4c3)c(C)n2C)c(C(F)(F)F)n1 [B.176] | 8.15
Cc1c(S(=O)(=O)c2ccc3[nH]ncc3c2)cc(C(=O)NCc2ccc(=O)n(C)c2)n1C [B.177] | 6.86
Cc1c(S(=O)(=O)c2ccc3[nH]ncc3c2)cc(C(=O)NCc2c(F)ccc(=O)n2C)n1C [B.179] | > 9.82
Cc1c(S(=O)(=O)c2ccc3[nH]ncc3c2)cc(C(=O)NCc2c(Cl)ccn(C)c2=O)n1C [B.180] | > 9.82
Cc1c(S(=O)(=O)c2ccc3[nH]ncc3c2)cc(C(=O)NCc2c(F)ccn(C)c2=O)n1C [B.181] | 9.64
Cc1c(S(=O)(=O)c2ccc3c(cnn3C)c2)cc(C(=O)NCc2c(F)ccnc2N2CCC(C(=O)NS(C)(=O)=O)C2)n1C (stereo not shown) [B.182] | > 9.82
Cc1c(S(=O)(=O)c2cccc(C#N)c2)cc(C(=O)NCc2c(Cl)cnn2C)n1C [B.183] | 7.77
